In US20110195987A1, “TREATMENT WITH CHOLINERGIC AGONISTS” (priority 2009, published 2011):

Key:
Format in all cases: in vivo, human
[1] = Case studies: vaginal dryness / vaginal secretions in female patients
Experimental: (§1) A second patient two, suffering from painful intercourse and vaginal dryness and discomfort, also used oral pilocarpine at a dose of 2.5-5 mg BID. […] A trial of intra-vaginal administration of pilocarpine, starting at a dose of 1/4 of a 5 mg tablet daily at night was tried. […] The patient had previously tried HRT without much improvement. The improvement in vaginal symptoms was stunning.
(§2) A third patient has had problems with vaginal dryness and painful intercourse for several years. Oral hormone replacement therapy consisting of both estradiol and PROMETRIUM (progesterone), had provided no relief for their vaginal symptoms. They were started on oral Evoxac, 30 mg daily. After a week, they administered 30 mg cevimeline mixed with a small amount of yogurt directly in the vagina nightly. They have reported improvement in both vaginal dryness and pain on intercourse and continues on the treatment.
They were started on oral pilocarpine, 5 mg twice a day. Within a few days, they noticed marked improvement in their symptoms, i.e., a reduction in vaginal dryness and symptoms associated with urinary tract infections. […]
(§3) Their symptoms consisted of vaginal and pelvic pain as well as signs of urinary tract infections with trace positive cultures. Prior attempts to treat urinary tract infections with antibiotics often failed. They began a regimen of oral pilocarpine, 5 mg twice a day, for a week followed by 5 mg pilocarpine administered directly to the vagina nightly for a week. Subsequently, the amount of pilocarpine was increased to 10 mg directly administered to the vagina nightly. […] Additionally, they reported a reduction in pelvic pain and vaginal dryness a few days after commencing intravaginal administration of 10 mg pilocarpine.

[2] = Case studies: symptoms of interstitial cystitis (IC) in female patients
Experimental: (§4) In the case of a patient who has been diagnosed with IC for more than 8 years, no prior treatment has helped the episodes of pain, urinary frequency, and systemic symptoms mentioned above. […] However, the onset of breast cancer and its treatment have precluded the use of Hormone Replacement Therapy (HRT). Because of vaginal dryness, a trial of Evoxac (cevimeline HCl) capsules, 30 mg daily, by oral administration was tried. […] This lasted for about 2 months. The Evoxac was started on or about Apr. 5, 2009. […] Metoprolol at a dose of 12.5-25 mg/day was started to slow the heart rate. […] The Evoxac was restarted at a dose of 15 mg daily. A trial of intra-vaginal medication at a dose of 30 mg per vagina (powder was taken out of the capsule and instilled using a gel cap) was also tried.
as §3

[3] = Case studies: painful intercourse in female patients
Experimental: as §1, §2
(§5) They began a week long regimen of oral pilocarpine, 5 mg twice a day, followed by 10 mg placed directly in the vagina nightly. They reported improvement in symptoms associated with urinary tract infections, vaginal dryness and painful intercourse. […] Formulation of the pilocarpine in a manner suitable for intravaginal administration will improve delivery of the pilocarpine and the efficacy of treatment.

[4] = Case studies: side effects of oral versus intra-vaginal administration
Experimental: as §4, §1
(§6) […] They began and tolerated oral pilocarpine, 5 mg twice a day.

[5] = Case studies: urinary tract infections in female patients
Experimental: […] […] They were started on oral pilocarpine, 5 mg twice a day. Within a few days, they noticed marked improvement in their symptoms, i.e., a reduction in vaginal dryness and symptoms associated with urinary tract infections.
as §6, §5

[6] = Case study: vaginal yeast infections in patient; conditions: Case Study 5, patient one; oral 5 mg twice a day, approximately 8 months
Experimental: as §6

[7] = Case Study 3, patient seven, oral 30 mg daily for a week, then 30 mg in yogurt directly in the vagina nightly
[8] = Case Study 1, patient three, 30 mg daily, oral
[9] = Case Study 2, patient two, intra-vaginal up to 7.5 mg daily
[10] = Case Study 2, patient two, oral 2.5-5 mg BID
[11] = Case Study 4, patient five, oral 5 mg twice a day, within a few days
[12] = Case Study 5, patient one, oral 5 mg twice a day, approximately 8 months
[13] = Case Study 6, patient six, oral 5 mg twice a day for a week, then 10 mg in the vagina nightly
[14] = Case Study 7, patient four, 10 mg intravaginal nightly, a few days after commencing

CC1OC2(CS1)CN1CCC2CC1 (stereo not drawn) [Evoxac, 2-methyspiro (1,3-oxathiolane-5,3) quinuclidine]
vaginal dryness ([1]; Case Study 1, patient three, capsules 30 mg daily, oral): improvement in vaginal dryness
vaginal dryness [1, 7]: improvement
symptoms of IC ([2]; Case Study 1, patient three, 15 mg daily oral, compared with prior treatment incl. Elmiron 100 mg TID four months): improved the symptoms of IC better than any prior treatment
duration of remission of IC symptoms [2, 8]: about 2 months
symptoms of IC [2, 8]: remitted
symptoms of IC ([2]; Case Study 1, patient three, 30 mg intra-vaginal (powder in gel cap), compared with prior treatment incl. Elmiron 100 mg TID four months): improved the symptoms of IC better than any prior treatment
symptoms of IC after discontinuing the medication ([2]; Case Study 1, patient three, stopped for a few weeks): symptoms of IC return within a week
pain on intercourse [3, 7]: improvement
side effects ([4]; Case Study 1, patient three, 30 mg intra-vaginal): completely eliminated side-effects
side effects ([4]; Case Study 1, patient three, oral administration, 30 mg daily): nausea and rapid heart rate

CC(=O)[C@H]1CC[C@H]2[C@@H]3CCC4=CC(=O)CC[C@]4(C)[C@H]3CC[C@]12C [PROMETRIUM, progesterone]
vaginal symptoms (vaginal dryness and painful intercourse) ([1]; Case Study 3, patient seven, oral hormone replacement therapy, estradiol and PROMETRIUM together): no relief

CC[C@@H]1C(=O)OC[C@@H]1Cc1cncn1C [pilocarpine, (3S,4R)-3-ethyl-4-((1-methyl-1H-imidazol-5-yl)methyl)dihydrofuran-2(3H)-one]
vaginal secretions ([1]; Case Study 2, patient two, intra-vaginal 2.5 mg daily): partial response
vaginal secretions ([1]; Case Study 2, patient two, intra-vaginal 5 mg daily): improved greatly
vaginal secretions ([1]; Case Study 2, patient two, intra-vaginal 7.5 mg daily): improved greatly
improvement in vaginal symptoms [1, 9]: stunning
vaginal dryness [1, 10]: improved
vaginal dryness [1, 11]: reduction
results of intermittent dosing ([1]; Case Study 4, patient five, oral, taken intermittently): satisfactory results
vaginal dryness [1, 12]: no more vaginal dryness
vaginal dryness [1, 13]: improvement
vaginal secretions ([1]; Case Study 7, patient four, 5 mg directly to the vagina nightly, after the first week): an increase in vaginal secretions
vaginal secretions ([1]; Case Study 7, patient four, 10 mg directly to the vagina nightly): increased more significantly
vaginal dryness [1, 14]: reduction
pelvic pain [2, 14]: reduction
intercourse [3, 9]: could enjoy intercourse for the first time in many months
painful intercourse [3, 13]: improvement
systemic symptoms ([4]; Case Study 2, patient two, intra-vaginal): no systemic symptoms
side effects [4, 10]: excess sweating and nausea
tolerability ([4]; Case Study 5, patient one, oral 5 mg twice a day): tolerated
symptoms associated with urinary tract infections [5, 11]: reduction
urinary tract infections [5, 12]: far fewer
symptoms associated with urinary tract infections [5, 13]: improvement
vaginal yeast infections [6]: far fewer
